# Legend:
# [1] = tested on: PgKO-PPARγ1; assay: Adipogenesis in PgKO-PPARγ1 MEF adipocyte model (aP2, Perilipin Q-PCR); type: cell-based, mouse
# [2] = tested on: 3T3-L1 adipocytes; assay: Browning in fully differentiated 3T3-L1 adipocytes (Q-PCR); type: cell-based
# Excerpt: To validate the efficiency of Rosi NPs, an in vitro adipocyte model PgKO-PPARγ1 was used in which the reconstitution of a shorter form of PPARγ (γ1) in Ppar^−/− mouse embryonic fibroblast (MEF) rescues adipocyte differentiation only in the presence of exogenous Thiazolidinedione class of ligand (e.g. Rosi). […] In addition to adipogenic potential, the browning capacity of Rosi NPs was also compared. In fully differentiated 3T3-L1 adipocytes, Rosi NPs behaved the same as nude Rosi to up-regulate brown adipocyte markers Elovl3 and Cidea as well as to repress white adipocyte genes Resistin and Adipsin (FIG. 2g). Therefore, the disclosed nanoparticalization strategy can sustain a constant release of Rosi at physiological levels of glucose without affecting its efficiency.
# RNA was extracted from tissues or cells by combining TriZol reagent and NucleoSpin RNA kit with DNase I digestion (Macherey-Nagel), following the manufacturer's instructions. 1 μg total RNA was used to synthesize cDNA by using the High-capacity cDNA Reverse Transcription kit (Applied Biosystems). Quantitative real-time PCR (Q-PCR) were performed on a Bio-Rad CFX96 Real-Time PCR platform by using the GoTaq qPCR Master Mix (Promega). Relative gene expressions were calculated by using ΔΔCt method with Cyclophilin A (cultured cells) or RPL23 (tissues) as the reference gene.
structure (smiles),measurement,setting,value
"CN(CCOc1ccc(CC2SC(=O)NC2=O)cc1)c1ccccn1 (racemic) [nude Rosi, (RS)-5-[4-(2-[methyl(pyridin-2-yl)amino]ethoxy)benzyl]thiazolidine-2,4-dione]",adipocyte formation (induction of aP2 and Perilipin),[1],induce adipocyte formation
same,brown adipocyte markers Elovl3 and Cidea expression,[2],up-regulate
same,white adipocyte genes Resistin and Adipsin expression,[2],repress
